Results on 1 compound are retold here after EP4512427A1, “ANTIBODY-DRUG CONJUGATES BASED ON MOLECULAR GLUE DEGRADERS AND USES THEREOF” (Mablink Bioscience, priority 2023, dated 2025).

One data set addresses T1, MDR1 (Homo sapiens, UniProt P08183).
T1 construct: host or cells: MDCK-MDR1 (Preadyport)
In words: MDR1 efflux substrate assay in MDCK-MDR1. Type of data set: in vitro ADME. Particulars: dog, MDCK-MDR1, 5µM, 60 min, pH 7.4.

The subject of another data set is 340 protein kinases. The experiment in a line: Kinase screening assay (radiometric 33PanQinase). Type of data set: biochemical, human. Particulars: 10 µM; most inhibited kinases: CMGC family, particularly CDKs (23 out of the 30 most inhibited were CDK/Cyclin complexes). On the procedure:
Compound 2384 according to the disclosure was subjected to kinase screening assays (performed at Reaction Biology, Germany). The screening assay was performed at a final compound concentration of 10 µM. A radiometric protein kinase assay (33PanQinase® ActivityAssay) was used for measuring the kinase activity of 340 protein kinases. All kinase assays were performed in 96-well FlashPlates™ from Perkin Elmer (Boston, MA, USA) in a 50 µL reaction volume. […] All PKC assays (except the PKC-mu and the PKC-nu assay) additionally contained 1 mM CaCl2, 4 mM EDTA, 5 µg/m! Phosphatidylserine and 1 µg/m! 1,2-Dioleyl-glycerol. The CAMK1D, CAMK2A, CAMK2B, CAMK2D, CAMK2G, CAMK4, CAMKK1, CAMKK2, DAPK2, EEF2K, MYLK, MYLK2 and MYLK3 assays additionally contained 1 µg/ml Calmodulin and 0.5 mM CaCl2. The PRKG1 and PRKG2 assays additionally contained 1 µM cGMP. The DNA-PK assay additionally contained 2.5 µg/ml DNA. The protein kinase reaction cocktails were incubated at 30°C for 60 minutes. The reaction was stopped with 50 µl of 2 % (v/v) H3PO4, plates were aspirated and washed two times with 200 µL 0.9 % (w/v) NaCl. Incorporation of 33Pi (counting of "cpm") was determined with a microplate scintillation counter (Microbeta, Wallac). All protein kinase assays were performed with a BeckmanCoulter Biomek 2000/SL robotic system. […]

The structures appear in SMILES notation.

T1 sequence (P08183 whole entry): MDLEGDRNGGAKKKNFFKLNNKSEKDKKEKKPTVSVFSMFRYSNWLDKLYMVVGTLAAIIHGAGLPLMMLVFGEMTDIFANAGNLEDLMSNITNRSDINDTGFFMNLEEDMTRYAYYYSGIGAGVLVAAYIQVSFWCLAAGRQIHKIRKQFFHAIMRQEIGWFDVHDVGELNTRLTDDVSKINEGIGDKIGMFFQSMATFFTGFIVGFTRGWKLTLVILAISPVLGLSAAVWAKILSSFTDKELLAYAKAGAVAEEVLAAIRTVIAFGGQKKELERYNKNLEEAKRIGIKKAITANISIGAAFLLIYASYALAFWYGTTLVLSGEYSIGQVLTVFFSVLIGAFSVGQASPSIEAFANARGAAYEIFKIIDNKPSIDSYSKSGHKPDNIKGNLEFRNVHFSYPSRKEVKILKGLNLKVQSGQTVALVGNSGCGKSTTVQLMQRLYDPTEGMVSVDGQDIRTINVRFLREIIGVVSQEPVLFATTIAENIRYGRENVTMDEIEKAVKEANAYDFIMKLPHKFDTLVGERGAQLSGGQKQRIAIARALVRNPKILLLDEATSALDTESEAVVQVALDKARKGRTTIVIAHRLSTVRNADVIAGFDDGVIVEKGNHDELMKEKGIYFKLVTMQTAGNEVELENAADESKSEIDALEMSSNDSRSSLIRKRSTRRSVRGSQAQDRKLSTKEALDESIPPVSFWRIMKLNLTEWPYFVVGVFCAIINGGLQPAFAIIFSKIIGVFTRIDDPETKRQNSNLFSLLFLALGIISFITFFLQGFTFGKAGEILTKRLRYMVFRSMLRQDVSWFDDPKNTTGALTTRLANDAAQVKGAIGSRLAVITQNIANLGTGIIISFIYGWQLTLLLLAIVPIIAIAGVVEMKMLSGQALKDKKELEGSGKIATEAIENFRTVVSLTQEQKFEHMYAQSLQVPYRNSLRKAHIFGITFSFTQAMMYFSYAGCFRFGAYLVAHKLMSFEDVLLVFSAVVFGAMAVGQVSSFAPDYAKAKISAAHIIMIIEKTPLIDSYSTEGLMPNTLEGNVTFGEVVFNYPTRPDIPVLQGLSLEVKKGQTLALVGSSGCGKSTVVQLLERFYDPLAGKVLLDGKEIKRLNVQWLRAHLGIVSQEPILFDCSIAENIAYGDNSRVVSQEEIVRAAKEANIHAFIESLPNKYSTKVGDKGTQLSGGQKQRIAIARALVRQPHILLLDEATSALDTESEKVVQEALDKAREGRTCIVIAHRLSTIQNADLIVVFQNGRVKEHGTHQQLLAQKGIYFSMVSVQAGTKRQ

The term Papp A→B denotes how fast a substance crosses the layer from the apical side. Usually Papp B→A stands for how fast a substance crosses the layer from the basolateral side. As to `N[C@H]1CC[C@H](Nc2nc(NCc3ccc(-c4ccccn4)cc3)n3ncc(Br)c3n2)CC1` [Compound 2384], the Papp A→B at 1 h, 5 µM on MDR1 (read-out: Papp A (donor) to B (acceptor)) was < 0.25 ×10⁻⁶ cm/s. In addition, the Papp B→A at 1 h, 5 µM on MDR1 (read-out: Papp B (acceptor) to A (donor)) was determined as 36.9 ×10⁻⁶ cm/s. Besides, the “inhibition of kinase activity” value in the data set on 340 protein kinases is on record as “more than 90%”.
